# Data as given in DBAASP.
# Assays:
# Experiment in all cases: ≥ marks a high value that may be exact or a test limit, other limits are often not marked, values filed in µg/mL are converted to µM
# [1] = system: Candida albicans NCYC 1467
# [2] = system: Enterococcus faecalis NCTC 12697
# [3] = system: Escherichia coli NCTC 10418
# [4] = system: Klebsiella pneumoniae ATCC 43816
# [5] = system: Pseudomonas aeruginosa ATCC 27853
# [6] = system: Staphylococcus aureus NCTC 10788
# [7] = system: Staphylococcus aureus NCTC 12493
# Bacillus cereus = system: Bacillus cereus
# Escherichia coli = system: Escherichia coli
# Staphylococcus aureus = system: Staphylococcus aureus
# Bacillus subtilis 168 = system: Bacillus subtilis 168
# [8] = system: Candida albicans F7-39/IDE99
# Escherichia coli B = system: Escherichia coli B
# Pseudomonas aeruginosa = system: Pseudomonas aeruginosa
# [9] = system: Escherichia coli DH5alpha
# Klebsiella pneumoniae = system: Klebsiella pneumoniae
# Salmonella typhimurium = system: Salmonella typhimurium
SMILES,MIC [1],MIC [2],MIC [3],MIC [4],MIC [5],MIC [6],MIC [7],MIC (Staphylococcus aureus),MIC (Pseudomonas aeruginosa),other results
CC[C@H](C)[C@@H]1NC(=O)[C@H](C)NC(=O)[C@@H](NC(=O)[C@H](CCCCN)NC(=O)[C@H](C)NC(=O)[C@H](C)NC(=O)[C@H](CC(C)C)NC(=O)CNC(=O)[C@H](C)NC(=O)[C@@H](NC(=O)[C@H](CC(C)C)NC(=O)[C@@H]2CCCN2C(=O)[C@H](CC(C)C)NC(=O)[C@@H](N)Cc2ccccc2)[C@@H](C)CC)CSSC[C@@H](C(=O)O)NC(=O)[C@H](CCCCN)NC(=O)[C@H](CCCCN)NC(=O)[C@H]([C@@H](C)O)NC1=O [FLPLIAGLAAKCAITKKC],≥ 512 µM,≥ 512 µM,≥ 512 µM,≥ 512 µM,> 512 µM,≥ 512 µM,≥ 512 µM,–,–,–
CC[C@H](C)[C@H](NC(=O)[C@@H](NC(=O)[C@H](CS)NC(=O)[C@H](Cc1ccc(O)cc1)NC(=O)[C@@H](NC(=O)[C@H](CO)NC(=O)[C@@H]1CCCN1C(=O)[C@@H](NC(=O)[C@@H](NC(=O)[C@H](CCCCN)NC(=O)[C@H](CO)NC(=O)[C@H](C)NC(=O)[C@H](CC(C)C)NC(=O)[C@H](CCCCN)NC(=O)[C@H](Cc1ccccc1)NC(=O)[C@@H](NC(=O)[C@@H](N)C(C)C)C(C)C)C(C)C)C(C)C)C(C)C)[C@@H](C)O)C(=O)N[C@H](C(=O)N[C@@H](CCCCN)C(=O)N[C@@H](CCCCN)C(=O)O)[C@@H](C)O [VVFKLASKVVPSVYCTITKK],–,–,–,–,–,–,–,–,–,MIC (Bacillus cereus): ≥ 116 µM; MIC (Escherichia coli): 116 µM
CC(C)C[C@H](NC(=O)[C@H](CCCCN)NC(=O)[C@H](Cc1ccccc1)NC(=O)[C@@H](NC(=O)[C@@H](NC(=O)CNC(=O)[C@H](CC(C)C)NC(=O)[C@@H](N)Cc1ccccc1)C(C)C)C(C)C)C(=O)N[C@@H](C)C(=O)N[C@@H](CO)C(=O)N[C@@H](CCCCN)C(=O)N[C@H](C(=O)N[C@@H](Cc1ccccc1)C(=O)N1CCC[C@H]1C(=O)N[C@@H](C)C(=O)N[C@H](C(=O)N[C@H](C(=O)NCC(=O)N[C@@H](CCCCN)C(=O)N[C@H](C(=O)O)C(C)C)C(C)C)C(C)C)C(C)C [FLGVVFKLASKVFPAVVGKV],–,–,–,–,–,–,–,15.2 µM,–,MIC (Bacillus cereus): 30.4 µM; MIC (Escherichia coli): 122 µM
CC(C)C[C@H](NC(=O)[C@H](CCC(N)=O)NC(=O)[C@H](CCC(N)=O)NC(=O)[C@H](C)NC(=O)CNC(=O)[C@H](C)NC(=O)[C@H](CCCCN)NC(=O)CNC(=O)[C@@H](NC(=O)[C@H](CCC(N)=O)NC(=O)[C@H](CCCCN)NC(=O)[C@@H]1CCCN1C(=O)[C@H](CC(C)C)NC(=O)[C@H](Cc1ccc(O)cc1)NC(=O)[C@H](CCCCN)NC(=O)[C@H](C)NC(=O)CNC(=O)[C@H](C)NC(=O)[C@H](CCCCN)NC(=O)[C@H](Cc1ccccc1)NC(=O)[C@H](CC(C)C)NC(=O)[C@H](CO)NC(=O)[C@H](CO)NC(=O)[C@H](Cc1ccccc1)NC(=O)CN)C(C)C)C(N)=O [GFSSLFKAGAKYLPKQVGKAGAQQL],≥ 512 µM,≥ 512 µM,≥ 512 µM,≥ 512 µM,> 512 µM,≥ 512 µM,≥ 512 µM,–,–,–
CC[C@H](C)[C@H](NC(=O)[C@H](CC(C)C)NC(=O)[C@H](Cc1cnc[nH]1)NC(=O)CNC(=O)[C@H](CC(C)C)NC(=O)[C@@H](NC(=O)[C@H](CCCCN)NC(=O)[C@H](CO)NC(=O)[C@H](Cc1c[nH]c2ccccc12)NC(=O)[C@H](CCSC)NC(=O)CN)[C@@H](C)CC)C(=O)N[C@@H](CCCN=C(N)N)C(N)=O [GMWSKILGHLIR],–,–,–,–,–,–,–,7.7 µM,45 µM,MIC (Bacillus subtilis 168): 0.8 µM; MIC [8]: 6.2 µM; MIC (Escherichia coli B): 3.8 µM
CC[C@H](C)[C@H](NC(=O)[C@H](CCCCN)NC(=O)[C@H](CO)NC(=O)[C@H](Cc1c[nH]c2ccccc12)NC(=O)[C@H](CC(C)C)NC(=O)CN)C(=O)N[C@@H](CCCCN)C(=O)N[C@@H](CCCCN)C(=O)N[C@@H](C)C(=O)N[C@@H](C)C(=O)N[C@@H](CCCCN)C(=O)N[C@H](C(=O)N[C@@H](C)C(=O)NCC(=O)N[C@@H](CCCCN)C(=O)N[C@@H](C)C(=O)N[C@@H](C)C(=O)N[C@@H](CC(C)C)C(=O)NCC(=O)N[C@@H](Cc1ccccc1)C(=O)N[C@H](C(=O)N[C@@H](CC(N)=O)C(=O)N[C@@H](CCCCN)C(=O)N[C@@H](CCSC)C(=O)N[C@H](C(N)=O)C(C)C)C(C)C)[C@@H](C)O [GLWSKIKKAAKTAGKAALGFVNKMV],4 µM,2 µM,2 µM,2 µM,4 µM,2 µM,2 µM,–,–,–
CC[C@H](C)[C@H](N)C(=O)N[C@@H](CC(C)C)C(=O)N1CCC[C@H]1C(=O)N[C@@H](Cc1c[nH]c2ccccc12)C(=O)N[C@@H](CCCCN)C(=O)N[C@@H](Cc1c[nH]c2ccccc12)C(=O)N[C@@H](C)C(=O)N[C@@H](Cc1c[nH]c2ccccc12)C(=O)N[C@@H](Cc1c[nH]c2ccccc12)C(=O)N[C@@H](C)C(=O)N[C@@H](Cc1c[nH]c2ccccc12)C(=O)N[C@@H](CCCN=C(N)N)C(=O)N[C@@H](CCCN=C(N)N)C(N)=O [ILPWKWAWWAWRR],–,–,–,–,–,–,–,–,100 µM,MIC [9]: 15 µM; MIC (Klebsiella pneumoniae): 25 µM; MIC (Salmonella typhimurium): 25 µM
CSCC[C@H](NC(=O)[C@H](CC(=O)O)NC(=O)[C@@H](NC(=O)[C@@H](NC(=O)[C@H](CCCCN)NC(=O)[C@H](CC(N)=O)NC(=O)[C@H](CC(C)C)NC(=O)[C@@H](NC(=O)[C@H](C)NC(=O)[C@H](CCCCN)NC(=O)CNC(=O)[C@H](C)NC(=O)[C@H](C)NC(=O)[C@H](CCCCN)NC(=O)CNC(=O)[C@@H](NC(=O)[C@H](CC(N)=O)NC(=O)[C@H](CCCCN)NC(=O)[C@H](CC(C)C)NC(=O)[C@H](CC(C)C)NC(=O)[C@H](CC(=O)O)NC(=O)[C@H](CCCCN)NC(=O)[C@H](Cc1c[nH]c2ccccc12)NC(=O)[C@H](CC(C)C)NC(=O)[C@H](C)N)C(C)C)C(C)C)C(C)C)[C@@H](C)O)C(=O)N[C@H](C(=O)N[C@@H](CC(N)=O)C(=O)N[C@@H](CCC(N)=O)C(N)=O)C(C)C [ALWKDLLKNVGKAAGKAVLNKVTDMVNQ],4 µM,≥ 128 µM,4 µM,8 µM,8 µM,4 µM,8 µM,–,–,–
CC[C@H](C)[C@H](NC(=O)[C@H](C)NC(=O)[C@H](C)NC(=O)[C@@H]1CCCN1C(=O)[C@@H](NC(=O)[C@H](CC(C)C)NC(=O)[C@H](CCCCN)NC(=O)CNC(=O)[C@H](C)NC(=O)[C@@H](NC(=O)[C@H](CCCCN)NC(=O)[C@H](CC(C)C)NC(=O)[C@@H](NC(=O)[C@H](C)NC(=O)CNC(=O)[C@H](CC(C)C)NC(=O)[C@@H](N)Cc1ccccc1)C(C)C)C(C)C)C(C)C)C(=O)N[C@H]1CSSC[C@@H](C(=O)O)NC(=O)[C@H](CCCCN)NC(=O)[C@H](CCCCN)NC(=O)[C@H](CO)NC(=O)[C@H]([C@@H](C)CC)NC(=O)[C@H](CCCCN)NC1=O [FLGAVLKVAGKLVPAAICKISKKC],2 µM,8 µM,4 µM,8 µM,32 µM,2 µM,4 µM,–,–,–
CSCC[C@H](NC(=O)[C@H](C)NC(=O)[C@H](CC(C)C)NC(=O)[C@H](CCCCN)NC(=O)[C@H](CC(C)C)NC(=O)[C@H](CC(C)C)NC(=O)[C@H](CCCCN)NC(=O)[C@H](CCCCN)NC(=O)[C@@H](NC(=O)[C@@H](N)CC(C)C)C(C)C)C(=O)NCC(=O)N[C@@H](Cc1ccccc1)C(=O)NCC(N)=O [LVKKLLKLAMGFG],–,–,–,–,–,–,–,90 µM,> 100 µM,MIC (Bacillus subtilis 168): 3.7 µM; MIC [8]: 25 µM; MIC (Escherichia coli B): 14.7 µM
CSCC[C@H](NC(=O)CN)C(=O)N[C@@H](Cc1c[nH]c2ccccc12)C(=O)N[C@@H](CO)C(=O)N[C@@H](CCCCN)C(=O)N[C@@H](CC(C)C)C(=O)N[C@@H](CC(C)C)C(=O)NCC(=O)N[C@@H](Cc1cnc[nH]1)C(=O)N[C@@H](CC(C)C)C(=O)N[C@@H](CC(C)C)C(=O)N[C@@H](CCCN=C(N)N)C(N)=O [GMWSKLLGHLLR],–,–,–,–,–,–,–,7.7 µM,20.2 µM,MIC (Bacillus subtilis 168): 1.3 µM; MIC [8]: 5 µM; MIC (Escherichia coli B): 3 µM
